Source: patent US20260176283A1, “IONIZABLE LIPIDS WITH LINEAR HEAD GROUPS” (Beam Therapeutics Inc., priority 2023, published 2026)

What was measured:
[1] = LNP preparation characterization (encapsulation efficiency, DLS size and polydispersity), barcoded screen LNPs; assay type: physicochemical; settings: LNP 47.5% ionizable lipid: 40% cholesterol: 2.5% PEG-2000 DMG: 10% DPSC, N/P 4.5-6; for AVG Z Dia (nm) / AVG PDI: DLS
Description: Lipid nanoparticle components were dissolved in 100% ethanol at specified lipid component molar ratios. Nucleic acid (NA) cargo was dissolved in 10 mM citrate, 100 mM NaCl, pH 4.0, resulting in a concentration of NA cargo of approximately 0.22 mg/mL. In some embodiments, NA cargos included both a functional NA and a reporter barcode mixed at mass ratios of 1:10 to 10:1 functional NA to barcode. As described herein, a NA can be a siRNA, an anti-sense, an expressing DNA, or mRNA.
LNP preparations were prepared with 47.5% Ionizable Lipid (e.g., a compound provided herein): 40% cholesterol: 2.5% PEG-2000 DMG: 10% DPSC and an N/P ratio range of 4.5-6. LNP preparations were formed by microfluidic mixing of the lipid and NA solutions using Precision Nanosystems NanoAssemblr Spark or Benchtop series Instruments, according to the manufacturer's protocol.
A ratio of aqueous to organic solvent of approximately 2:1 or 3:1 was maintained during mixing using differential flow rates. After mixing, LNP preparations were collected, diluted in phosphate buffer saline (PBS) or Tris-buffered saline (TBS) (approximately 1:1 v/v). Further buffer exchange was conducted using dialysis in PBS or TBS at 4° C. for 4 to 24 hours against a 20 kDa filter. After this initial dialysis, each individual LNP preparation may be characterized via dynamic light scattering (DLS) to measure the size (e.g., diameter) and polydispersity. LNP preparations falling within specific diameter and polydispersity ranges were pooled, and further dialyzed against PBS or TBS at 4° C. for 1 to 4 hours against a 100 kDa dialysis cassette. After the second dialysis, LNP preparations were sterile filtered using 0.22 μm filter and stored at 4° C. for further use.

ALAS1 target site = assay: In vivo base editing with ABE mRNA and sgRNA targeting ALAS1; design: species or system Balb/c mice; settings: for Liver Editing A->G (%): 4 days after dosing
Description: (§1) Lipid nanoparticle components are dissolved in 100% ethanol at specified lipid component molar ratios. mRNA encoding an adenine base editor and a chemically-modified sgRNA is dissolved at a mass ratio of 1:1 in 10 mM citrate, 100 mM NaCl, pH 4.0, resulting in a concentration of NA cargo of approximately 0.22 mg/mL. LNP preparations are formulated with molar ratios of either 50% Ionizable Lipid: 38.5% Cholesterol: 1.5% PEG2000-DMG: 10% DSPC or 47.5% Ionizable Lipid: 40% Cholesterol: 2.5% PEG2000-DMG: 10% DSPC both at a total lipid to NA molar ratio of 6.
(§2) LNP preparations are formed by microfluidic mixing of the lipid and NA solutions using a Precision Nanosystems NanoAssemblr Ignite Instrument, according to the manufacturer's protocol. A 3:1 ratio of aqueous to organic solvent is maintained during mixing using differential flow rates. After mixing, LNP preparations are collected, diluted in PBS (approximately 2:1 v/v), and further buffer exchange is conducted using dialysis in PBS at 4° C. for 8 to 24 hours against a 20 kDa filter. After this initial dialysis, each individual LNP preparation is characterized via dynamic light scattering (DLS) to measure size and polydispersity. pKa of a subpopulation of LNP preparations is measured via TNS assay. After dialysis, LNP preparations are sterile filtered using 0.22 micron sterile filter and stored at 4° C. for further use. In some embodiments, LNP preparations may be concentrated using 100 kDa Amicon filters per manufacturer's protocol.
Male Balb/C mice aged approximately 8-12 weeks are used in the experiments described herein. Each mouse is temporarily restrained, and LNP preparations are administered IV via tail vein injection. Age-matched mice are also used to administer vehicle (1×PBS) via tail vein injection as a control. Four to six days post-dose, tissues including liver, spleen, heart and muscle are collected (only liver and muscle (quardracept) are reported). Genomic DNA is isolated and fragmented and adapter-ligated using the Nextera DNA Flex Library Prep Kit (Illumina) using the 96-well plate Nextera indexing primers (Illumina), according to the manufacturer's instructions. Library size and concentration is confirmed by Fragment Analyzer (Agilent) and sent to Novogene for whole genome sequencing using an Illumina HiSeq.
For base editing, mRNA encoding an adenine base editor (ABE) and a guide RNA (sgRNA) targeting ALAS1 at 1:1 (mass ratio) are coencapsulated in LNP preparations as described herein. LNP preparations are administrated into Balb/c mice through tail vein injections at concentrations ranging from 0.05 to 3.0 mg/kg total RNA. At 4 days after dosing, mice are euthanized and liver, spleen and bone barrow are harvested. Base editing is determined by performing targeted deep sequencing analysis at the ALAS1 target site using extracted genomic DNA.

[2] = LNP characterization of base editor LNP preparations (DLS diameter, PDI, encapsulation efficiency); assay type: physicochemical
Description: as §1, §2
DLS—LNP preparation hydrodynamic diameter and polydispersity index (PDI) is measured using high throughput dynamic light scattering (DLS) (DynaPro plate reader II, Wyatt). LNP preparations are diluted 1×PBS to an appropriate concentration and analyzed.
Concentration of NA is determined by Qubit microRNA kit (for siRNA) or HS RNA kit (for mRNA) per manufacturer's instructions. Encapsulation efficiency is determined by measuring unlysed and lysed LNPs.

[3] = dose 3 MPK IV, formulation ratio 50:38.5:1.5:10, quadricep muscle
[4] = Table D LNPs, formulation ratio 50:38.5:1.5:10, ABE mRNA/ALAS1 sgRNA
[5] = Table C LNPs, formulation ratio 47.5:40:2.5:10, ABE mRNA/ALAS1 sgRNA

SMILES | AVG EE(%) [1] | AVG Z Dia (nm) [1] | Quadrecept Editing A->G (%) (ALAS1 target site; [3]) | Diameter (nm) [2, 4] | EE (%) [2, 4] | PDI (%) [2, 4] | AVG PDI [1] | Liver Editing A->G (%) (ALAS1 target site; dose 3 MPK IV, formulation ratio 50:38.5:1.5:10, liver) | Liver Editing A->G (%) (ALAS1 target site; dose 0.1 MPK IV, formulation ratio 47.5:40:2.5:10, liver) | Quadrecept Editing A->G (%) (ALAS1 target site; dose 0.1 MPK IV, formulation ratio 47.5:40:2.5:10, quadricep muscle) | Diameter (nm) [2, 5] | EE (%) [2, 5] | PDI (%) [2, 5] | Liver Editing A->G (%) (ALAS1 target site; dose 0.05 MPK IV, formulation ratio 47.5:40:2.5:10, liver) | Liver Editing A->G (%) (ALAS1 target site; dose 1.5 MPK IV, formulation ratio 50:38.5:1.5:10, liver) | Quadrecept Editing A->G (%) (ALAS1 target site; dose 1.5 MPK IV, formulation ratio 50:38.5:1.5:10, quadricep muscle) | Liver Editing A->G (%) (ALAS1 target site; dose 0.05 MPK IV, formulation ratio 50:38.5:1.5:10, liver) | Quadrecept Editing A->G (%) (ALAS1 target site; dose 3 MPK IV, formulation ratio 47.5:40:2.5:10, quadricep muscle)
C=CCCCC(CCCC=C)OC(=O)CCCCCCC(=O)OCC(COC(=O)CCCCCCC(=O)OC(CCCC=C)CCCC=C)COC(=O)CCCN1CCCC1 [Compound (7), 1-[2-({[8-Oxo-8-(undeca-1,10-dien-6-yloxy)octanoyl]oxy}methyl)-3-{[4-(pyrrolidin-1-yl)butanoyl]oxy}propyl] 8-undeca-1,10-dien-6-yl octanedioate] | 74.3% | 85.54 nm | 0.87% | 121.2 nm | 91.02% | 11.8% |  |  |  |  |  |  |  |  |  |  |  | 
CC/C=C\CCCC(CCC/C=C\CC)OC(=O)CCCCC(=O)OCC(COC(=O)CCCCC(=O)OC(CCC/C=C\CC)CCC/C=C\CC)COC(=O)CCCN1CCCC1 [Compound (12), 1-{2-[({6-Oxo-6-[(3Z,12Z)-pentadeca-3,12-dien-8-yloxy]hexanoyl}oxy)methyl]-3-{[4-(pyrrolidin-1-yl)butanoyl]oxy}propyl}6-(3Z,12Z)-pentadeca-3,12-dien-8-yl hexanedioate] | 63.6% | 105.44 nm | 0.22% | 82.7 nm | 72.57% | 17.4% | 0.12 |  |  |  |  |  |  |  |  |  |  | 
O=C(CCCCCCC(=O)OC(CCCCCC(F)(F)F)CCCCCC(F)(F)F)OCC(COC(=O)CCCCCCC(=O)OC(CCCCCC(F)(F)F)CCCCCC(F)(F)F)COC(=O)CCCN1CCCC1 [Compound (16), 1-(1,1,1,13,13,13-Hexafluorotridecan-7-yl)-8-{2-[({8-[(1,1,1,13,13,13-hexafluorotridecan-7-yl)oxy]-8-oxooctanoyl}oxy)methyl]-3-{[4-(pyrrolidin-1-yl)butanoyl]oxy}propyl} octanedioate] | 64.3% | 129.85 nm | 0.6% | 96.8 nm | 96.3% | 13.5% | 0.09 | 72.41% |  |  |  |  |  |  |  |  |  | 
C=CCCCC(CCCC=C)COC(=O)CCCCCC(=O)OCC(COC(=O)CCCCCC(=O)OCC(CCCC=C)CCCC=C)COC(=O)CCCN1CCCC1 [Compound (18), 1-(2-{[(7-Oxo-7-{[2-(pent-4-en-1-yl)hept-6-en-1-yl]oxy}heptanoyl)oxy]methyl}-3-{[4-(pyrrolidin-1-yl)butanoyl]oxy}propyl) 7-[2-(pent-4-en-1-yl)hept-6-en-1-yl] heptanedioate] | 98.2% | 138.63 nm | 2.5% | 149.3 nm | 88.58% | 13.1% | 0.07 |  | 0.99% | 0.29% | 106 nm | 93.9% | 16.9% |  |  |  |  | 
CCCCCCCC(CCCCCCC)OC(=O)CCCCCC(=O)OCC(COC(=O)CCCCCC(=O)OC(CCCCCCC)CCCCCCC)COC(=O)CCCN1CCCC1 [Compound (21), O1-[2-[[7-(1-heptyloctoxy)-7-oxo-heptanoyl]oxymethyl]-3-(4-pyrrolidin-1-ylbutanoyloxy)propyl] O7-(1-heptyloctyl) heptanedioate] | 95.1% | 75.95 nm |  |  |  |  | 0.13 |  |  |  | 62.08 nm | 98.19% | 6% | 0.5% |  |  |  | 
CCC/C=C\CCC(CC/C=C\CCC)OC(=O)CCCCCC(=O)OCC(COC(=O)CCCCCC(=O)OC(CC/C=C\CCC)CC/C=C\CCC)COC(=O)CCCN1CCCC1 [Compound (23), 1-{2-[({7-Oxo-7-[(4Z,11Z)-pentadeca-4,11-dien-8-yloxy]heptanoyl}oxy)methyl]-3-{[4-(pyrrolidin-1-yl)butanoyl]oxy}propyl} 7-(4Z,11Z)-pentadeca-4,11-dien-8-ylheptanedioate] | 85.8% | 78.47 nm |  | 72.6 nm | 98.18% | 11.4% | 0.12 |  |  |  |  |  |  |  | 80.09% | 4.81% |  | 
C=CCCCCCC(CCCCCC=C)OC(=O)CCCCCC(=O)OCC(COC(=O)CCCCCC(=O)OC(CCCCCC=C)CCCCCC=C)COC(=O)OCC1CCCN(CC)C1 (stereo not drawn) [Compound (25), O1-[2-[(1-ethyl-3-piperidyl)methoxycarbonyloxymethyl]-3-[7-(1-hept-6-enyloct-7-enoxy)-7-oxo-heptanoyl]oxy-propyl] O7-(1-hept-6-enyloct-7-enyl) heptanedioate] | 94.4% |  |  | 79.55 nm | 96.9% |  | 0.12 |  |  |  | 75.47 nm | 99.1% | 1.2% |  |  |  | 0.27% | 2.93%
